Laboratory results as given in patent US12303530B2, “Combination therapy of cycloserine and lithium for the treatment of depression” (NEURORIVE INC, priority 2019, dated 2025).

System: mice (C57BL6)
Test: forced swimming test (FST)
Format: in vivo, mouse
Settings: FST in an hour after administration, immobility time measured for the last 4 minutes of 6 minutes
Description: In order to test an effect of reducing depression depending on administration of the pharmaceutical composition of the present invention, mice were subjected to a forced swimming test (FST). The FST, which is to measure a coping strategy for acute stress that inevitably occurs, is an animal behavioral experiment commonly used to measure antidepressant effects. To confirm the effect of reducing depression by combined administration of D-cycloserine (DCS) and lithium, 10 ml/kg of the preparation was administered to all groups of mice (C57BL6). […] After 1 hour, the forced swimming test (FST) that measures depression-like behavior was performed on the mice. Specifically, each group of mice was individually placed in a 3 L Pyrex beaker (13 cm in diameter, 24 cm in height), and the beakers were filled with 27.5±1.5° C. of water up to a depth of 9 cm. All mice were forced to swim for 6 minutes, and immobility time was measured for the last 4 minutes of the experiment. The immobility time is defined as the […] time taken while the mouse is floating without struggling or taking only the movement required for keeping the mouse's head above the water surface.

SMILES	immobility in forced swimming test, compared to the control group administered with the vehicle
N[C@@H]1CONC1=O [DCS, D-cycloserine]	did not show statistical significance
O=C([O-])[O-].[Li+].[Li+] [Li2CO3, Lithium carbonate]	did not show statistical significance
